Test results reported in PMC9387934, “Randomized single oral dose phase 1 study of safety, tolerability, and pharmacokinetics of Iminosugar UV-4 Hydrochloride (UV-4B) in healthy subjects” (PLoS Neglected Tropical Diseases, 2022).
Several values for one entry are separate records, joined by “and”; a condition that tells them apart may be missing. Identical values can stand only once.

Assay: Phase 1a single ascending dose study: UV-4 plasma concentrations and PK parameters (LC-MS/MS, noncompartmental)
Type: in vivo
Details: for CONCENTRATION UV4: human plasma
Method: UV-4 ((2R,3R,4R,5S)-2-(hydroxymethyl)-1-(9-methoxynonyl)piperidine-3,4,5-triol, also called N-(9’-methoxynonyl)-1-deoxynojirimycin, or MON-DNJ) hydrochloride was evaluated in a first-in-human, randomized, single-center, double-blind, placebo-controlled, parallel group, single ascending dose Phase 1a clinical trial in healthy subjects (Figs 1 and 2, ClinicalTrials.gov Identifier NCT02061358 https://clinicaltrials.gov/ct2/show/NCT02061358). The primary objective was to determine the safety and tolerability of a single-ascending oral dose of UV-4 hydrochloride (Fig 3). […] The secondary objective was to determine PK parameters describing absorption and elimination of UV-4 following a single oral dose of UV-4 hydrochloride. Eight cohorts of eight subjects each were enrolled and completed the study. In each cohort, six subjects received UV-4 as the hydrochloride; two received placebo. Subjects were screened against study eligibility criteria up to four weeks (Days -28 to -2) before admission to the clinic (Day -1). Dosing was performed on an inpatient basis. Subjects remained in clinic for 48 hours post-dosing for PK sample collection and safety assessments and were discharged from the clinic on Day 3. Subjects returned to the clinic on Day 4 for additional safety assessments, then again on Day 9 ± 1 for a final follow-up visit.
Eligible subjects were healthy males and females, age 18–45 years, with a body mass index between 18 and 30 kg/m^2 inclusive and a minimum body weight of 60 kg. Subjects were considered healthy based on medical history, physical exam, vital signs, 12-lead electrocardiogram (ECG), clinical laboratory tests (hematology, blood chemistry, urinalysis), viral serology, and drug and alcohol screening. Male and female subjects of childbearing potential were required to use adequate contraception over the course of the clinical trial. […] Only subjects who met all inclusion and none of the exclusion criteria prior to administration of the investigational product were enrolled into the study (no exemptions were granted). A total of 64 subjects were enrolled (eight cohorts of eight subjects each). In each of the eight cohorts, six subjects were randomized to receive a single dose of UV-4 (3 to 1000 mg, depending on cohort) as the hydrochloride salt, and two subjects to receive placebo. Cohort size of six active subjects was based on analysis that increasing cohort size above six in a first-in-human study gains little in the ability to observe a drug induced event, and results in observing more events that are not related to study drug. Two of the eight subjects in each cohort (sentinel subjects; one active and one placebo) received their doses at least 48 h before the remaining subjects in each cohort.
On each day of use, bulk drug substance (UV-4B for solubilization, SAI Life Sciences Ltd. Telangana, India) was removed from a single-use container, weighed at the study center, and solubilized in 20 mL sterile water for injection (SWFI) (Hospira Inc. Illinois, United States of America). Weight of solid drug substance was converted to dose of UV-4 by applying purity and salt correction factor per pharmacy manual when preparing the dosing solution. UV-4B solution was administered orally with 10 mL of taste-masking agent, OraSweet-SF (Paddock Laboratories LLC, Minneapolis, United States of America) in a total volume of 30 mL, to assist in maintaining study blinding. Placebo was SWFI (20 mL) plus OraSweet-SF (10 mL). Concentrations and doses were calculated and expressed as the active free base form, UV-4. This methodology is consistent with USP<1121>, which recommends that the strength of a drug product or preparation is expressed in terms of the active moiety. Following consumption of active or placebo solution, the dosing container was rinsed with 50 mL of tap water also consumed by subjects. […]

In the case of COCCCCCCCCCN1C[C@H](O)[C@@H](O)[C@H](O)[C@H]1CO [UV4], the “CONCENTRATION UV4 in human plasma” value (Cohort 7, nominal day 1, nominal hour 0, individual subjects) is reported as “<LLOQ (0.500) ng/mL”, the “CONCENTRATION UV4 in human plasma” value (Cohort 7, nominal day 1, nominal hour 0, subject with all samples <LLOQ) is reported as “<LLOQ (0.500) ng/mL” and the “CONCENTRATION UV4 in human plasma” value (Cohort 7, nominal day 1, nominal hour 0.5, individual subjects) is reported as 8420 ng/mL and 5960 ng/mL and 5510 ng/mL and 13200 ng/mL and 9650 ng/mL. For the same compound, the “CONCENTRATION UV4 in human plasma” value (Cohort 7, nominal day 1, nominal hour 0.5, subject with all samples <LLOQ) was “<LLOQ (0.500) ng/mL”, the “CONCENTRATION UV4 in human plasma” value (Cohort 7, nominal day 1, nominal hour 1, individual subjects) was 8390 ng/mL and 11600 ng/mL and 8700 ng/mL and 11700 ng/mL and 8870 ng/mL and the “CONCENTRATION UV4 in human plasma” value (Cohort 7, nominal day 1, nominal hour 1, subject with all samples <LLOQ) was “<LLOQ (0.500) ng/mL”. The “CONCENTRATION UV4 in human plasma” value (Cohort 7, nominal day 1, nominal hour 1.5, individual subjects) was 7250 ng/mL and 7490 ng/mL and 5760 ng/mL and 7510 ng/mL and 6190 ng/mL, the “CONCENTRATION UV4 in human plasma” value (Cohort 7, nominal day 1, nominal hour 1.5, subject with all samples <LLOQ) was “<LLOQ (0.500) ng/mL” and the “CONCENTRATION UV4 in human plasma” value (Cohort 7, nominal day 1, nominal hour 2, individual subjects) was 5560 ng/mL and 6260 ng/mL and 4660 ng/mL and 6160 ng/mL and 5490 ng/mL. For the same compound, the “CONCENTRATION UV4 in human plasma” value (Cohort 7, nominal day 1, nominal hour 2, subject with all samples <LLOQ) was “<LLOQ (0.500) ng/mL”, the “CONCENTRATION UV4 in human plasma” value (Cohort 7, nominal day 1, nominal hour 2.5, individual subjects) was 4270 ng/mL and 6030 ng/mL and 3950 ng/mL and 4710 ng/mL and 4800 ng/mL and the “CONCENTRATION UV4 in human plasma” value (Cohort 7, nominal day 1, nominal hour 2.5, subject with all samples <LLOQ) was “<LLOQ (0.500) ng/mL”. For the same compound, the “CONCENTRATION UV4 in human plasma” value (Cohort 7, nominal day 1, nominal hour 3, individual subjects) was 3650 ng/mL and 5660 ng/mL and 3610 ng/mL and 4080 ng/mL and 4540 ng/mL, the “CONCENTRATION UV4 in human plasma” value (Cohort 7, nominal day 1, nominal hour 3, subject with all samples <LLOQ) was “<LLOQ (0.500) ng/mL” and the “CONCENTRATION UV4 in human plasma” value (Cohort 7, nominal day 1, nominal hour 4, individual subjects) was 2230 ng/mL and 3760 ng/mL and 2630 ng/mL and 3120 ng/mL and 3370 ng/mL. The “CONCENTRATION UV4 in human plasma” value (Cohort 7, nominal day 1, nominal hour 4, subject with all samples <LLOQ) was “<LLOQ (0.500) ng/mL”, the “CONCENTRATION UV4 in human plasma” value (Cohort 7, nominal day 1, nominal hour 6, individual subjects) was 1120 ng/mL and 1930 ng/mL and 1770 ng/mL and 1610 ng/mL and 1730 ng/mL and the “CONCENTRATION UV4 in human plasma” value (Cohort 7, nominal day 1, nominal hour 6, subject with all samples <LLOQ) was “<LLOQ (0.500) ng/mL”. The “CONCENTRATION UV4 in human plasma” value (Cohort 7, nominal day 1, nominal hour 9, individual subjects) was 429 ng/mL and 642 ng/mL and 790 ng/mL and 588 ng/mL and 656 ng/mL, the “CONCENTRATION UV4 in human plasma” value (Cohort 7, nominal day 1, nominal hour 9, subject with all samples <LLOQ) was “<LLOQ (0.500) ng/mL” and the “CONCENTRATION UV4 in human plasma” value (Cohort 7, nominal day 1, nominal hour 12, individual subjects) was 184 ng/mL and 254 ng/mL and 352 ng/mL and 266 ng/mL and 301 ng/mL. The “CONCENTRATION UV4 in human plasma” value (Cohort 7, nominal day 1, nominal hour 12, subject with all samples <LLOQ) was “<LLOQ (0.500) ng/mL”, the “CONCENTRATION UV4 in human plasma” value (Cohort 7, nominal day 1, nominal hour 18, individual subjects) was 47.6 ng/mL and 69.6 ng/mL and 82.9 ng/mL and 80.3 ng/mL and 78.0 ng/mL and the “CONCENTRATION UV4 in human plasma” value (Cohort 7, nominal day 1, nominal hour 18, subject with all samples <LLOQ) was “<LLOQ (0.500) ng/mL”. The “CONCENTRATION UV4 in human plasma” value (Cohort 7, nominal day 2, nominal hour 24, individual subjects) was 58.7 ng/mL and 27.8 ng/mL and 38.9 ng/mL and 46.4 ng/mL and 45.6 ng/mL and 40.8 ng/mL, the “CONCENTRATION UV4 in human plasma” value (Cohort 7, nominal day 2, nominal hour 24, subject with all samples <LLOQ) was “<LLOQ (0.500) ng/mL” and the “CONCENTRATION UV4 in human plasma” value (Cohort 7, nominal day 2, nominal hour 36, individual subjects) was 17.4 ng/mL and 8.03 ng/mL and 10.9 ng/mL and 14.8 ng/mL and 12.7 ng/mL. The “CONCENTRATION UV4 in human plasma” value (Cohort 7, nominal day 2, nominal hour 36, subject with all samples <LLOQ) was “<LLOQ (0.500) ng/mL”, the “CONCENTRATION UV4 in human plasma” value (Cohort 7, nominal day 3, nominal hour 48, individual subjects) was 7.94 ng/mL and 3.58 ng/mL and 4.75 ng/mL and 6.57 ng/mL and 8.76 ng/mL and 6.60 ng/mL and the “CONCENTRATION UV4 in human plasma” value (Cohort 7, nominal day 3, nominal hour 48, subject with all samples <LLOQ) was “<LLOQ (0.500) ng/mL”. For the same compound, the “CONCENTRATION UV4 in human plasma” value (Cohort 8, nominal day 1, nominal hour 0, subjects with all samples <LLOQ) was “<LLOQ (0.500) ng/mL”, the “CONCENTRATION UV4 in human plasma” value (Cohort 8, nominal day 1, nominal hour 0.5, subjects with all samples <LLOQ) was “<LLOQ (0.500) ng/mL” and the “CONCENTRATION UV4 in human plasma” value (Cohort 8, nominal day 1, nominal hour 1, subjects with all samples <LLOQ) was “<LLOQ (0.500) ng/mL”. For the same compound, the “CONCENTRATION UV4 in human plasma” value (Cohort 8, nominal day 1, nominal hour 1.5, subjects with all samples <LLOQ) was “<LLOQ (0.500) ng/mL”, the “CONCENTRATION UV4 in human plasma” value (Cohort 8, nominal day 1, nominal hour 2, subjects with all samples <LLOQ) was “<LLOQ (0.500) ng/mL” and the “CONCENTRATION UV4 in human plasma” value (Cohort 8, nominal day 1, nominal hour 2.5, subjects with all samples <LLOQ) was “<LLOQ (0.500) ng/mL”. For the same compound, the “CONCENTRATION UV4 in human plasma” value (Cohort 8, nominal day 1, nominal hour 3, subjects with all samples <LLOQ) was “<LLOQ (0.500) ng/mL”, the “CONCENTRATION UV4 in human plasma” value (Cohort 8, nominal day 1, nominal hour 4, subjects with all samples <LLOQ) was “<LLOQ (0.500) ng/mL” and the “CONCENTRATION UV4 in human plasma” value (Cohort 8, nominal day 1, nominal hour 6, subjects with all samples <LLOQ) was “<LLOQ (0.500) ng/mL”. The “CONCENTRATION UV4 in human plasma” value (Cohort 8, nominal day 1, nominal hour 9, subjects with all samples <LLOQ) was “<LLOQ (0.500) ng/mL”, the “CONCENTRATION UV4 in human plasma” value (Cohort 8, nominal day 1, nominal hour 12, subjects with all samples <LLOQ) was “<LLOQ (0.500) ng/mL” and the “CONCENTRATION UV4 in human plasma” value (Cohort 8, nominal day 1, nominal hour 18, subjects with all samples <LLOQ) was “<LLOQ (0.500) ng/mL”. The “CONCENTRATION UV4” value (Cohort 1, nominal day 1, nominal hour 0) was “<LLOQ (0.500) ng/mL” and the “CONCENTRATION UV4” value (Cohort 1, nominal day 3, nominal hour 48) was “<LLOQ (0.500) ng/mL”.
